Reference: paper PMC6273344, “Biochemical Characteristics of Three Laccase Isoforms from the Basidiomycete Pleurotus nebrodensis” (Molecules, 2015)
Where a name gives a salt, the structure may show the parent alone.

What was measured:
Conditions in all cases: McIlvaine buffer at optimum pH (3.0); ABTS 125-5000 uM; O2 as co-substrate
Lac3 = tested on: Lac3
Lac2 = tested on: Lac2
Lac1 = tested on: Lac1

Km (Lac3): 104 µM | Km (Lac2): 550 µM | Km (Lac1): 160 µM
SMILES: CCn1c(=NN=c2sc3cc(S(=O)(=O)O)ccc3n2CC)sc2cc(S(=O)(=O)O)ccc21 [ABTS, 2,2′-azino-bis(3-ethylbenzothiazoline-6-sulfonic acid) diammonium salt]
